Where two headings read alike, the source gives them in different places.
Assays:
S. aureus = settings: cited from earlier work
cis-DPPS (Rv2361c) = cis-DPPS (Rv2361c) (Mycobacterium tuberculosis, UniProt P9WFF7)
M. smegmatis = experiment: Activity against the M. tuberculosis model M. smegmatis; type: cell-based
UPPS = settings: cited from earlier work
Rv3378c = Rv3378c (Mycobacterium tuberculosis, UniProt P9WJ61)
Chain of Rv3378c (P9WJ61 whole entry): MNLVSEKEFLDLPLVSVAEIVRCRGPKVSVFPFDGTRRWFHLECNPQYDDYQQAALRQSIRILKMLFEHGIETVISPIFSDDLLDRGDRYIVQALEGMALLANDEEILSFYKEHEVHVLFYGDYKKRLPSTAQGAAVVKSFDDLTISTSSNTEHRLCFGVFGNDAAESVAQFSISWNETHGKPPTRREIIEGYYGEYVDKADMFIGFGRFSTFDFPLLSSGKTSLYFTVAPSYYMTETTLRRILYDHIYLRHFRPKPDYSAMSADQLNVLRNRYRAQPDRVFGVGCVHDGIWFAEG

Chain of cis-DPPS (Rv2361c) (P9WFF7 whole entry): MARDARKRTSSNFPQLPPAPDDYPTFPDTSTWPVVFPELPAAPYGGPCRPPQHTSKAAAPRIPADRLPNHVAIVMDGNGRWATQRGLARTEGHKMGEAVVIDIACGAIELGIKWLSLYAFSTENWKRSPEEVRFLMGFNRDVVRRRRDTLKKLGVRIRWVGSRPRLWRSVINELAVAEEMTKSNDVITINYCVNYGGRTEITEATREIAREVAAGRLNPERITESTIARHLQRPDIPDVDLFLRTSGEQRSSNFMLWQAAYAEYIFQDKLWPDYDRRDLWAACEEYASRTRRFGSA

Compound: C(=C\c1cc2ccc(C3=NCCN3)cc2[nH]1)/c1cc2ccc(C3=NCCN3)cc2[nH]1 [BPH-1417]
- in vivo activity against S. aureus (S. aureus): potent
- IC50 (cis-DPPS (Rv2361c); read-out: IC50 against DPPS, depending on substrate): 500 to 20000 nM
- IC50 (cis-DPPS (Rv2361c); read-out: IC50 against cis-DPPS, substrate not stated): 1300 nM

Compound: O=P(O)(O)C(O)(Cc1cccc(-c2cccc3c2oc2ccccc23)c1)P(=O)(O)O [BPH-629]
- IC50 (cis-DPPS (Rv2361c); read-out: IC50 against DPPS, cis-FPP as substrate): 610 nM
- activity against M. smegmatis (M. smegmatis): inactive

Compound: Cl.Cl.O=C(Nc1cccc(C2=NCCN2)c1)c1ccc(-c2ccc(C(=O)Nc3cccc(C4=NCCN4)c3)cc2)cc1 [BPH-1358]
- UPPS inhibition (UPPS): potent UPPS inhibitor
- activity against Rv3378c (Rv3378c): inactive
